Measurements as given in US6750244B2, “Compounds active at a novel site on receptor-operated calcium channels useful for treatment of neurological disorders and diseases” (NPS Pharmaceuticals, Inc., priority 1993, dated 2004).
pIC50: −log10 of the molar value. Read-outs that look alike come from different tables or passages of the source.

Tests used:
[1] = system: sound-induced seizures; experiment: Sound-induced seizures in Frings mice (reflex epilepsy); assay type: in vivo
[2] = system: locomotor activity; details: 32 mg/kg s.c.
Experimental: The first assay simply monitors locomotor activity during the first hour following peripheral (s.c. or i.p.) administration of test substance. […] Activity was quantified by counting the number of breaks in a phototube grid in a 60 min period.

[3] = system: NMDA receptor; experiment: Inhibition of NMDA/glycine-induced increases in intracellular calcium in cultured rat cerebellar granule cells (RCGC); assay type: cell-based
[4] = system: PCP-like discriminative stimulus effects; assay type: in vivo, rats; details: 1-30 mg/kg i.p.
Text: In this assay, rats who have been trained to lever press for food reinforcement must select which of two levers in their cages is correct. The only stimulus they hive for selecting the correct lever is their ability to detect whether they received a PCP or vehicle injection After about two months of training, rats become very good at discriminating PCP from vehicle injections and can then be tested with other drugs to determine if they are discriminated as PCP. When tested in this procedure, other drugs which are known to produce a PCP-like intoxication substitute for PCP. These drugs include various PCP analogs such as ketamine and the noncompetitive NMDA receptor antagonist, MK-801.

[5] = system: maximal electroshock-induced seizures; experiment: Maximal electroshock-induced seizures in mice; assay type: in vivo; details: CF1 mice, 4 μg i.c.v.
[6] = system: T1, L-type calcium channel; experiment: Inhibition of KCl depolarization-induced increases in intracellular calcium in cultured rat cerebellar granule cells; assay type: cell-based; details: read-out: L-type calcium channel: estimated IC50, KCl depolarization-induced increases in intracellular calcium; cultured rat cerebellar granule cells
T1 construct: L-type calcium channel: estimated IC50, KCl depolarization-induced increases in intracellular calcium; other: cultured
Text: (§1) The ability of arylalkylamines to inhibit dihydropyridine-sensitive Ca^2+ channels was examined in cerebellar granule cells and a rat aortic smooth muscle cell line, A7r5 cells.

[7] = system: acetic acid-induced writhing; assay type: in vivo, mice; details: i.p.
[8] = system: focal cerebral ischemia; experiment: Middle cerebral artery occlusion, permanent, surgical ligation; assay type: in vivo, rat; details: single dose 30 mg/kg i.p. 30 minutes after occlusion; 24 hours
Experimental: In the first study using this stroke model, one cerebral artery was permanently occluded by surgical ligation. The test compounds were administered 30 minutes after the occlusion by a single intraperitoneal (i.p.) injection. During the course of these experiments, the core body temperature of the animals was maintained at 37° C. to prevent any hypothermic reaction. Brains were assessed histologically for neuronal cell loss 24 hours later. Infarct volumes were calculated using the area of histological pallor from 10 slides and integrating the distance between each successive section.

[9] = Acute motor impairment (rotorod) in mice; details: Frings, mouse, in vivo, ip
Experimental: (§2) In this assay, Frings and CF1 mice were injected with test compound and placed on a knurled rod which rotated at a speed of 6 rpm. The ability of the mice to maintain equilibrium for long periods of time was determined; those mice that were unable to maintain equilibrium on the rotorod for 1 min in each of 3 trials were considered impaired.

[10] = system: motor performance; experiment: Acute motor impairment (rotorod) in mice
Experimental: as §2

[11] = system: thermal nociception; assay type: in vivo, rats; details: 0.3-3 nmol i.th.
Experimental: In this standard assay, the thermal nociceptive stimulus was 52° C. warm water with the latency to tail flick or withdrawal taken as the endpoint.

[12] = molecular target: NMDA receptor-ionophore complex (site labeled by [3H]MK-801); experiment: Inhibition of [3H]MK-801 binding in rat cortical/hippocampal washed membrane preparations; details: read-out: IC50 (μM) vs. [3H]MK-801; rat cortical/hippocampal washed membranes
[13] = system: thermal nociception; assay type: in vivo, mice
[14] = system: mouse cortical neurons; experiment: cells; details: Cortical neurone, read-out: IC50, prevention of NMDA-induced cell death
Text: The effective concentrations of NMDA receptor antagonists vary depending on the particular experimental conditions and the type of cell studied (cortical, hippocampal, striatal).

[15] = system: thermal nociception; assay type: in vivo, rats; details: 0.3-3 nmol i.th.; remark: listed apart in the source
Experimental: In these experiments, a 52° C. hot plate was used as the nociceptive stimulus.

[16] = system: NMDA receptor; details: rat hippocampal slices
Experimental: (§3) Glutamate-mediated transmission at synapses of Schaffer collateral fibers and CA1 pyramidal cells was measured in slices of rat brain containing the hippocampus. This assay measures electrophysiologically the postsynaptic depolarization caused by the presynaptic release of glutamate, and can readily distinguish synaptic transmission mediated by NMDA or AMPA receptors.

[17] = molecular target: AMPA receptor; details: read-out: IC50 for the AMPA receptor-mediated response; rat hippocampal slices
Experimental: as §3

[18] = system: NMDA receptors; details: patch clamp
[19] = system: motor performance
Text: In this assay, animals are placed on a wire-holed grid suspended from a rotating metal bar which can be inverted. The animals are then scored for their ability to climb to the top or hang on to the grid. […] This assay provides an index of “behavioral disruption” that may result from ataxia, loss of the righting reflex, sedation, or muscle relaxation.

[20] = system: neuronal vacuolization; details: i.p.
[21] = system: forebrain ischemia (neuronal cell death); assay type: in vivo, gerbil; details: for reduction in neuronal death / protection in region CA1 of the hippocampus: 10 mg/kg, 7 days post-ischemia
Experimental: Blood flow to the brain was interrupted for 7 minutes by clamping the carotid arteries. The test compounds were administered as a 'single dose given intraperitoneally (i.p.) 30 minutes after reinstating blood flow. During the course of these experiments, the core body temperature of the animals was maintained at 37° C. to prevent any hypothermic reaction. […]

[22] = molecular target: voltage-sensitive Ca2+ channels (Rattus norvegicus, UniProt P22002); experiment: cell-based
Text: as §1

[23] = system: mean arterial blood pressure; details: for Drop in Mean Arterial Blood Pressure / Drop in Mean Arterial Blood Pressure: duration: 1.5 μmoles/kg i.v., rats
[24] = system: formalin-induced flinching; assay type: in vivo, Sprague-Dawley rats; details: 0.3-10 nmol i.th.; for late-phase flinching, administered after the formalin: 10 min after formalin; for flinching behaviors, pretreatment to formalin: 10 min prior to formalin
[25] = system: L-type calcium channel; experiment: Inhibition of KCl depolarization-induced increases in intracellular calcium in cultured rat cerebellar granule cells; assay type: cell-based; details: cerebellar granule cells
Text: as §1

[26] = system: audiogenic seizures; experiment: animal or person; assay type: in vivo, DBA/2 mice
Experimental: (§4) The first two models used DBA/2 mice which are prone to audiogenic seizures. […] The test substances were administered 15-30 min before the convulsant stimulus.

[27] = system: NMDA-induced seizures; experiment: animal or person; details: Mus musculus, sc, read-out: ED50 for NMDA stimulus
Experimental: as §4

[28] = system: induction of LTP; set-up: species or system rat; details: at 100 μM
[29] = system: temporary focal ischemia; experiment: Temporary focal cerebral ischemia (middle cerebral artery occlusion, suture withdrawn after 2 hr); assay type: in vivo, rat; details: 10 mg/kg i.p. immediately after onset of ischemic event; 72 hr
Experimental: In a fourth model of focal cerebral ischemia in the rat, the middle cerebral artery was temporarily occluded by passing a small piece of suture thread through the carotid artery to the region of the middle cerebral artery. The suture thread was withdrawn after an ischemic period of 2 hr. Core body temperature was maintained at 37° C. […]

[30] = system: permanent focal ischemia; experiment: Permanent focal cerebral ischemia (middle cerebral artery occlusion, suture); assay type: in vivo, rat; details: 10 mg/kg i.p. immediately after onset of ischemic event; 24 hr
Experimental: In the second study of focal cerebral ischemia in the rat, the middle cerebral artery was permanently occluded by passing a small piece of suture thread through the carotid artery to the region of the middle cerebral artery. Core body temperature was maintained at 37° C. Compound 4, 10 mg/kg i.p. administered immediately after the onset of the ischemic event, produced a statistically significant reduction in the volume of the brain infarct (20%) recorded 24 hr later.

[31] = system: learning; experiment: Morris water maze task; assay type: in vivo, rats; details: 10 mg/kg i.p. daily for 5 days
Experimental: In a second series of experiments, the effect of Compound 4 on learning in the Morris water maze task was evaluated. In this test, a hidden platform was placed in a fixed location in a circular steel tank, and submerged 2 cm below the surface of the water. Each rat was given 3 trials per day with a 10 min intertrial interval for 5 days. A trial was initiated by placing the rat in the water, nose facing the wall of the tank, at one of three predetermined starting locations. The order of the start location was varied daily. Learning was measured as a decrease in time required to swim to the platform. […] The animals remained on the platform for 10 sec before being removed from the tank. Ten min after the last training trial on day 5, the animals received a probe test. The platform was removed for this 1 trial task and the animals were allowed to swim for 60 sec to assess the spatial bias for the platform location. Two measures were recorded from this task: latency to first crossing the area where the platform had been, and total number of crossings. A total of 5 injections of Compound 4 were given to each rat. In the first series of experiments, Compound 4 was administered at 10 mg/kg i.p. daily for 5 days. […] In a subsequent study, six animals received 1 mg/kg i.p. for the first 4 days of training, while two animals received 5 mg/kg i.p. during this period. […]

[32] = system: focal ischemia; experiment: Photothrombotic (Rose Bengal) model of focal cerebral ischemia; assay type: in vivo, rat; details: 10 mg/kg i.p. 30 min after the ischemic event
Text: In a third model of focal cerebral ischemia in the rat, an ischemic infarct was produced by a photothrombotic method using the dye Rose Bengal.

[33] = intracerebroventricular (i.c.v.) injection
[34] = read-out: IC50 against NMDA receptor-mediated increases in [Ca2+]i in cerebellar granule cells

voltage-sensitive Ca2+ channels, sequence (P22002 whole entry): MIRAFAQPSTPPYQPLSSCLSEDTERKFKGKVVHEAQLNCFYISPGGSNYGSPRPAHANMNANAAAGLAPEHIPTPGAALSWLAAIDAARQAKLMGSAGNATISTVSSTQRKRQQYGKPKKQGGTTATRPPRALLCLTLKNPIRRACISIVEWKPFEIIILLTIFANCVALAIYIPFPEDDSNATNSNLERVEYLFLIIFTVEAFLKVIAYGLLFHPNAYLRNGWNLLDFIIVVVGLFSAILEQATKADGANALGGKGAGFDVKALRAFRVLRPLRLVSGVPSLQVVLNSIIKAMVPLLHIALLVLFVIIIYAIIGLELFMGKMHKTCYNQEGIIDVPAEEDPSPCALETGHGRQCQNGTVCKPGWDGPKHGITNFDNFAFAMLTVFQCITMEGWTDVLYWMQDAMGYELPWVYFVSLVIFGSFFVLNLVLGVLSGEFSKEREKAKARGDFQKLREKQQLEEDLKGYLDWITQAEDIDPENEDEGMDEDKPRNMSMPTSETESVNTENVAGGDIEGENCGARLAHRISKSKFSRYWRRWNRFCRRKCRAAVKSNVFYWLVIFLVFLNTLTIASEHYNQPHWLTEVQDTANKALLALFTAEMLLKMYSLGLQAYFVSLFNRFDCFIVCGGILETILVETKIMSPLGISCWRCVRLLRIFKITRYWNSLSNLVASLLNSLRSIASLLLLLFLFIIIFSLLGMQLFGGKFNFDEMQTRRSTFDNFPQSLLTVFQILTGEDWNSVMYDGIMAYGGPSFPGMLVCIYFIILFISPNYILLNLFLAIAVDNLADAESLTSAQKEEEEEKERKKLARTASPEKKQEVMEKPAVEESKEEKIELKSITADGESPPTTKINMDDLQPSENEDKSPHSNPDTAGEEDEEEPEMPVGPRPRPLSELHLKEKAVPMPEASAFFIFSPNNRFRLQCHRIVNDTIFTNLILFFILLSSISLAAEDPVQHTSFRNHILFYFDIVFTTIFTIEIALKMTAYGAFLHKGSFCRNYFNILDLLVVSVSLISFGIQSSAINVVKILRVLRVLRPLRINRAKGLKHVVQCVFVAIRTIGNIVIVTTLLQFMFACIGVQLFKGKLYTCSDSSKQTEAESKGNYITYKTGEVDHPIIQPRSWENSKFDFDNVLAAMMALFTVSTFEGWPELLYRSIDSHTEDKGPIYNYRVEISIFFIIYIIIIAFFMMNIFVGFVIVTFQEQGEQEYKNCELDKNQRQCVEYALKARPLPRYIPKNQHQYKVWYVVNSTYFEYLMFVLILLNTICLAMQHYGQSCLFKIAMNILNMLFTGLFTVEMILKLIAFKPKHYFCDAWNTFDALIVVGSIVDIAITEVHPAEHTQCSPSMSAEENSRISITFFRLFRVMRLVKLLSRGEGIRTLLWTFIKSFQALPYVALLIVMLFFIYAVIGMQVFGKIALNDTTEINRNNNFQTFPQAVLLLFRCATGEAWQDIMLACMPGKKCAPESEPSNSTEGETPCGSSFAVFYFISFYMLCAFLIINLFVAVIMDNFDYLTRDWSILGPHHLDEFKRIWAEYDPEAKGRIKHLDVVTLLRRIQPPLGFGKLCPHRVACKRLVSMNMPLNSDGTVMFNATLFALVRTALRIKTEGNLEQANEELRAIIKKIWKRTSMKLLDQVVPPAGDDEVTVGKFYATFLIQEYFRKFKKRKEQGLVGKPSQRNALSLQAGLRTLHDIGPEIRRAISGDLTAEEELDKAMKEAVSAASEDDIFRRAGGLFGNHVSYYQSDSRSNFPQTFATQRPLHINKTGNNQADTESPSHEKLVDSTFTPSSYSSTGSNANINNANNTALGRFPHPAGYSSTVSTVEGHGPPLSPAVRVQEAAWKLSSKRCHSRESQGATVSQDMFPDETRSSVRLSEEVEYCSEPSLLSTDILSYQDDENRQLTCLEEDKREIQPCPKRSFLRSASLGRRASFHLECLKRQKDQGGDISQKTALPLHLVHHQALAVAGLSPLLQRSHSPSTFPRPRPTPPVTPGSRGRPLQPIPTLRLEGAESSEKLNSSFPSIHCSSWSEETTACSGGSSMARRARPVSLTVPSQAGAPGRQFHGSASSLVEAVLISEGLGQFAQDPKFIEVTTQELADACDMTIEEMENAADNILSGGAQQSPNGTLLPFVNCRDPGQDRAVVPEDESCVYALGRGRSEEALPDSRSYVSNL

N=C(N)NCCCC(N)C(=O)NCCCNCCCNCCCCCNC(=O)C(CC(N)=O)NC(=O)Cc1ccc(O)cc1O (stereo not shown) [Compound 1]
IC50, prevention of sound-induced seizures [1, 33]: 0.63 µg
IC50, prevention of sound-induced seizures ([1]; intraperitoneal injection): 14.3 mg/kg
effect on locomotor activity [2]: did not elicit hyperactivity
pIC50 [3, 34]: 6.99
substitution for PCP [4]: did not substitute for PCP
effect against seizures elicited by maximal electroshock [5]: effective
pIC50 [6]: 3.59
IC50, inhibition of acetic acid-induced writhing [7]: 10 mg/kg
protection against neuronal cell loss [8]: approximately 15%
TD50 [9]: 16.8 mg/kg
motor impairment in CF1 mice ([10]; 4 μg i.c.v.): motor impairment
dose that had to be exceeded before motor toxicity was evident ([10]; Frings mice, i.c.v.): exceeded 1.56 μg
analgesic effect, tail flick (52° C. warm water) [11]: dose- and time-dependent analgesic effect
IC50 [12]: 126 µM
increase in latency to foot licking ([13]; 4 mg/kg s.c.): 136%
increase in latency to jumping ([13]; 32 mg/kg s.c.): 360%
pIC50 [14]: 4.15
antinociceptive effect, hot plate [15]: dose- and time-dependent antinociceptive effects
Suppression of NMDA Receptor-Mediated Synaptic Transmission (concentration which suppresses) [16]: 10 to 30 µM
pIC50 ([16]; read-out: IC50 for the NMDA receptor-mediated response): 4.70
pIC50 [17]: 3.19
effect on responses to NMDA and kainate [18]: blocked responses to NMDA at nanomolar concentrations without affecting the responses to kainate
motor performance in the inverted grid assay ([19]; 32 mg/kg s.c.): did not lessen the ability of DBA/2 mice to right themselves
dose without neuronal vacuolization [20]: 100 mg/kg
reduction in neuronal death / protection in region CA1 of the hippocampus [21]: 23%
pIC50 [22]: 3.09
Drop in Mean Arterial Blood Pressure [23]: 65 mm Hg at
Drop in Mean Arterial Blood Pressure: duration [23]: i.v., 60 min
late-phase flinching, administered after the formalin [24]: significance was achieved only at the 10 nmol dose
flinching behaviors, pretreatment to formalin [24]: effectively inhibited both early- and late-phase flinching behaviors

NCCCNCCCCNCCCNCCCNCCCNC(=O)Cc1c[nH]c2ccccc12 [Compound 2]
IC50 ([3]; read-out: IC50 (μM) vs. NMDA; NMDA/glycine-induced increases in intracellular calcium, cultured rat cerebellar granule cells): 0.192 µM
pIC50 [3, 34]: 6.79
concentrations inhibiting depolarization-induced increases in [Ca2+]i relative to those blocking responses to NMDA [25]: 100 fold
pIC50 [6]: 4.62
pIC50 [14]: 4.52
ED50 ([26]; Mus musculus, sc, read-out: ED50 for audiogenic stimulus): 0.13 mg/kg
Suppression of NMDA Receptor-Mediated Synaptic Transmission (concentration which suppresses) [16]: 10 to 30 µM
ED50 [27]: 0.083 mg/kg
motor performance in the inverted grid assay ([19]; 20 mg/kg s.c.): without effect
protection against neuronal cell death (CA1 of hippocampus, striatum and neocortex) ([21]; 20 mg/kg i.p. 30 minutes after reinstating blood flow, 4 days): significantly (p<0.05) protected against neuronal cell death
protection of the striatum ([21]; doses as low as 1 mg/kg): > 98%
Drop in Mean Arterial Blood Pressure [23]: 40 mm Hg at
Drop in Mean Arterial Blood Pressure: duration [23]: i.v., 120 min

NCCCNCCCCNCCCNCCCNCCCNC(=O)Cc1c[nH]c2ccc(F)cc12 [Compound 4]
IC50, prevention of sound-induced seizures [1, 33]: 4.77 µg
IC50 ([3]; NMDA/glycine-induced increases in intracellular calcium, cultured rat cerebellar granule cells; read-out: IC50 (μM) vs. NMDA): 0.184 µM
IC50, inhibition of acetic acid-induced writhing [7]: 1 mg/kg
LTP Assay (block of the induction of LTP) [28]: no block
TD50, acute motor impairment ([10]; Frings mice, i.c.v. injection): 8 to 16 µg
analgesic effect, tail flick (52° C. warm water) [11]: dose- and time-dependent analgesic effect
IC50 [12]: 89 µM
EC50 in the audiogenic seizure model ([26]; mouse, in vivo): 0.08 mg/kg
antinociceptive effect, hot plate [15]: dose- and time-dependent antinociceptive effects
reduction in the volume of the brain infarct [29]: 37%
Suppression of NMDA Receptor-Mediated Synaptic Transmission (concentration which suppresses) [16]: 10 to 100 µM
reduction in the volume of the brain infarct [30]: 20%
learning in the Morris water maze [31]: impaired learning
reduction in neuronal death / protection in region CA1 of the hippocampus [21]: 90%
reduction in the volume of the infarct [32]: 20%
Drop in Mean Arterial Blood Pressure [23]: 40 mm Hg at
Drop in Mean Arterial Blood Pressure: duration [23]: i.v., 120 min
drop in mean arterial pressure ([23]; 10 mg/kg i.p.): 40 mm Hg
persistence of the drop in mean arterial pressure ([23]; 10 mg/kg i.p.): 90 to 120 min
late-phase flinching, administered after the formalin [24]: significance achieved at the 3 and 10 nmol doses
flinching behaviors, pretreatment to formalin [24]: effectively inhibited both early- and late-phase flinching behaviors
